# From ChEMBL document CHEMBL2429821, “A Casein kinase 1/Checkpoint kinase 1 pyrazolo-pyridine protein kinase inhibitor as novel activator of the p53 pathway” (Bioorg Med Chem Lett, 2013)
# Experiments:
# [1] = molecular target: T1, Inhibitor of nuclear factor kappa-B kinase subunit epsilon (Homo sapiens) (UniProt Q14164); assay: Inhibition of human IKKepsilon assessed as residual activity at 1 uM relative to control
# T1 sequence (whole entry): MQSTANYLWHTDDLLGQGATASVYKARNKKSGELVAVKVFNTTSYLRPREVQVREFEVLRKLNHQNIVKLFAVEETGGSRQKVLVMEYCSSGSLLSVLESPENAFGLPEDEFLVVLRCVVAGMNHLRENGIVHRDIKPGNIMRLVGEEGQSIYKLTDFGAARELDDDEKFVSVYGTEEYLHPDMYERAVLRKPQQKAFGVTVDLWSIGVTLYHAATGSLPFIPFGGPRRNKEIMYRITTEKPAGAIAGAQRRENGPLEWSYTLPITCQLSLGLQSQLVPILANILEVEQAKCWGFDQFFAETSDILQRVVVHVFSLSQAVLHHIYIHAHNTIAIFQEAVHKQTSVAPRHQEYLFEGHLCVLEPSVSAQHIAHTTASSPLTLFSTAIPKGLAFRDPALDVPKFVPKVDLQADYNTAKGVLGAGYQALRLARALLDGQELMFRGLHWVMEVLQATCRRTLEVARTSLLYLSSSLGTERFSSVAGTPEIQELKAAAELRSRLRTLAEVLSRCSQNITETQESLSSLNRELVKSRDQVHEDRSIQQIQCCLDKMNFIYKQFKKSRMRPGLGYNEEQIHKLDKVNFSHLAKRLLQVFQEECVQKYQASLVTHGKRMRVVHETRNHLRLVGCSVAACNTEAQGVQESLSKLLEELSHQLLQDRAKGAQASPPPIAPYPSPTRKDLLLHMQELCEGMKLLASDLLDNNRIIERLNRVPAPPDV
# [2] = molecular target: Ribosomal protein S6 kinase alpha-3 (Homo sapiens) (UniProt P51812); assay: Inhibition of human RSK2 assessed as residual activity at 10 uM relative to control
# Chain of Ribosomal protein S6 kinase alpha-3 (Homo sapiens) (P51812 whole entry): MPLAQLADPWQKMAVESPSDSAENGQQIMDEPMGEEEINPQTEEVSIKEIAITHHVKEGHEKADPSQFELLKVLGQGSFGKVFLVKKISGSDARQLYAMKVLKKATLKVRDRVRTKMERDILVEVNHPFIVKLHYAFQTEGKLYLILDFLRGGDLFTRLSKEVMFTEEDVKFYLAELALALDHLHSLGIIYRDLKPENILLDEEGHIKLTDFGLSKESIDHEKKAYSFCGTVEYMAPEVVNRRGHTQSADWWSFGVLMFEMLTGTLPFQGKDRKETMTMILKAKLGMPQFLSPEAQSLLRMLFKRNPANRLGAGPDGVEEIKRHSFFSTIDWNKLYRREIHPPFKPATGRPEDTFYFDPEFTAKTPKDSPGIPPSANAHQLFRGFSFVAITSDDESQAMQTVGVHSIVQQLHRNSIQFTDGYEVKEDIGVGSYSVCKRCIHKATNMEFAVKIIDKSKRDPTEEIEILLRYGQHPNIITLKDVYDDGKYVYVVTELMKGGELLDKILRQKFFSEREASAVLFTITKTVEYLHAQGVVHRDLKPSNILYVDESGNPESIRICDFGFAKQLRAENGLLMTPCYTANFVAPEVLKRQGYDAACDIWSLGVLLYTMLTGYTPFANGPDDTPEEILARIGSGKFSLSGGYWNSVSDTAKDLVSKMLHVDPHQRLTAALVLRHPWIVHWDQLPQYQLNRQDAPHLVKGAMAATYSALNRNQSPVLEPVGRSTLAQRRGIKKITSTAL
# [3] = molecular target: Insulin receptor-related protein (Homo sapiens) (UniProt P14616); assay: Inhibition of human IRR assessed as residual activity at 10 uM relative to control
# [4] = molecular target: T2, Inhibitor of nuclear factor kappa-B kinase subunit beta (Homo sapiens) (UniProt O14920); assay: Inhibition of human IKKbeta assessed as residual activity at 10 uM relative to control
# T2 sequence (whole entry): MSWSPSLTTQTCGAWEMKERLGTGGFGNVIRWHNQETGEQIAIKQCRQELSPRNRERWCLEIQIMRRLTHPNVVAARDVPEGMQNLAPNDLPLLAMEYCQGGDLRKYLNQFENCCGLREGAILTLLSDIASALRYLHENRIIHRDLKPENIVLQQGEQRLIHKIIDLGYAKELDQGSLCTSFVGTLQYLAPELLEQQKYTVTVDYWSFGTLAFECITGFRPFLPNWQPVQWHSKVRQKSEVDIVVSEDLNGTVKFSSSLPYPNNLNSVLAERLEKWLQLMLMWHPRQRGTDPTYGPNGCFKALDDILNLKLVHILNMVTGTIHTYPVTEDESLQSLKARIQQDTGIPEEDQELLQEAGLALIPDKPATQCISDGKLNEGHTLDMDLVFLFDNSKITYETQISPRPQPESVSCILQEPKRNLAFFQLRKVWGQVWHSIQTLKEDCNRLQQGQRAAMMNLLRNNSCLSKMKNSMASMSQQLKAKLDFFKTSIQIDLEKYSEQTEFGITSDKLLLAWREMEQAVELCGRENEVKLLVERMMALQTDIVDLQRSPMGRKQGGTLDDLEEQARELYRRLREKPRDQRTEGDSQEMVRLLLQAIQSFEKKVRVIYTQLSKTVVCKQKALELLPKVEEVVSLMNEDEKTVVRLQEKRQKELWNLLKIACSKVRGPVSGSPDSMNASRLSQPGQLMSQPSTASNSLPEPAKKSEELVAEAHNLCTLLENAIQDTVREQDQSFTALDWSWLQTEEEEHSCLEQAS
# [5] = molecular target: Mitogen-activated protein kinase 9 (Homo sapiens) (UniProt P45984); assay: Inhibition of human JNK2 assessed as residual activity at 10 uM relative to control
# Chain of Mitogen-activated protein kinase 9 (Homo sapiens) (P45984 whole entry, looked up): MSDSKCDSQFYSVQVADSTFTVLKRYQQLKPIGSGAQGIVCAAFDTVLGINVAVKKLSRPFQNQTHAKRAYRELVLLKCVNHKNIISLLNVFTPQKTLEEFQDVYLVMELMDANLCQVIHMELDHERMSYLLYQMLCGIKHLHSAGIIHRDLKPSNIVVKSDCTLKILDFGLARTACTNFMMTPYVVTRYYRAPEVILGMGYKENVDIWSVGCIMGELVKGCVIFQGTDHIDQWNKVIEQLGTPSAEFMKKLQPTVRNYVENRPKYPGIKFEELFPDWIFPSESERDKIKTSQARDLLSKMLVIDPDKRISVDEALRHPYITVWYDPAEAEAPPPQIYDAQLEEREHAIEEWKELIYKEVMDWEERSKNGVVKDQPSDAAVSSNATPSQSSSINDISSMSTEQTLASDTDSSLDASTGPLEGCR
# [6] = molecular target: T1, Inhibitor of nuclear factor kappa-B kinase subunit epsilon (Homo sapiens); assay: Inhibition of human IKKepsilon assessed as residual activity at 10 uM relative to control
# [7] = molecular target: Calcium/calmodulin-dependent protein kinase type 1 (Homo sapiens) (UniProt Q14012); assay: Inhibition of human CAMK1 assessed as residual activity at 10 uM relative to control
# Chain of Calcium/calmodulin-dependent protein kinase type 1 (Homo sapiens) (Q14012 whole entry, looked up): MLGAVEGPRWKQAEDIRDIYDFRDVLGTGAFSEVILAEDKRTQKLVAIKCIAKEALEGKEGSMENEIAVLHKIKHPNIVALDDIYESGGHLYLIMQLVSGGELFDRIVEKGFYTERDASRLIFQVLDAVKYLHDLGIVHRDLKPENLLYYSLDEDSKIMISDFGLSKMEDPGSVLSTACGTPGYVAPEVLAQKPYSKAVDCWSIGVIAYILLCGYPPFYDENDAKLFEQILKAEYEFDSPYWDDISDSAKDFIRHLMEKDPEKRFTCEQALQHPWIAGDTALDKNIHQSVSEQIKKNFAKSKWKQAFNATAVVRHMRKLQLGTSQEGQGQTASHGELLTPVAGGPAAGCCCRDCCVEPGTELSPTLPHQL
# [8] = molecular target: Insulin receptor (Homo sapiens) (UniProt P06213); assay: Inhibition of human IR assessed as residual activity at 1 uM relative to control
# Chain of Insulin receptor (Homo sapiens) (P06213 28-758 limits assumed): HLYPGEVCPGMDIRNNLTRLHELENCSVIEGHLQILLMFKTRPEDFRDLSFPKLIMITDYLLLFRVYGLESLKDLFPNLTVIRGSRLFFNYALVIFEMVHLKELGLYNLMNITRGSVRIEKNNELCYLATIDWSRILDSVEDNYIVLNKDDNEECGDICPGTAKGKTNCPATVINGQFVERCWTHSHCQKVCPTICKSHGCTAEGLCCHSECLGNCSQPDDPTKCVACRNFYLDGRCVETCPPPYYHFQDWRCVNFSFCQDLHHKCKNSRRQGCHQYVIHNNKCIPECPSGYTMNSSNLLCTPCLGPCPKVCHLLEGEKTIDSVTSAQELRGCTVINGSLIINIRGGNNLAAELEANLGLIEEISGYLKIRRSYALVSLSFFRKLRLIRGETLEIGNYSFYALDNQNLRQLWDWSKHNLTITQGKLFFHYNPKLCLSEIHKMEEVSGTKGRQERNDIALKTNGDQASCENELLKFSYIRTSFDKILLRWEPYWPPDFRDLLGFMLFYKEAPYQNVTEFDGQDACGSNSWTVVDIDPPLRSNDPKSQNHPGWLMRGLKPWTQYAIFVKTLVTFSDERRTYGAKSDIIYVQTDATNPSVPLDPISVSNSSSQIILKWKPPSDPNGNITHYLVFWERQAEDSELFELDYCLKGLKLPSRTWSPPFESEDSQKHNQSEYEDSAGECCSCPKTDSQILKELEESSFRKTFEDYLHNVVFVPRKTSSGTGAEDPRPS
# Chain of Insulin receptor (Homo sapiens) (P06213 763-1382 limits assumed): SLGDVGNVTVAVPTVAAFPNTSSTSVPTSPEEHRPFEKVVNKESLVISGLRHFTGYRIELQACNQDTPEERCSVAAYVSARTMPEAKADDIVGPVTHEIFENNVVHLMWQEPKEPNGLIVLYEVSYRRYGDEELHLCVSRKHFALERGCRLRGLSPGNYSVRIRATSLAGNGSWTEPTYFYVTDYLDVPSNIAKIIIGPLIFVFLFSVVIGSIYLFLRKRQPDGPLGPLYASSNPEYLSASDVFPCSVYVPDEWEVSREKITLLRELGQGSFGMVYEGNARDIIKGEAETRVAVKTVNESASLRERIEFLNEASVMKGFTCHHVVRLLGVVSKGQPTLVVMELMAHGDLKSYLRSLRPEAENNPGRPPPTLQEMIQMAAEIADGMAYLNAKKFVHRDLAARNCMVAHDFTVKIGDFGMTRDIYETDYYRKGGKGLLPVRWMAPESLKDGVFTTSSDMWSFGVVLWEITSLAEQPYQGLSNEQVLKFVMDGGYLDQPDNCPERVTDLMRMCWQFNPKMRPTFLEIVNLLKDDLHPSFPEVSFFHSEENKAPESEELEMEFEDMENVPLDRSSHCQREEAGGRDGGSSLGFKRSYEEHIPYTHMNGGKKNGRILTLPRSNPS
# [9] = molecular target: MAP/microtubule affinity-regulating kinase 3 (Homo sapiens) (UniProt P27448); assay: Inhibition of human MARK3 assessed as residual activity at 1 uM relative to control
# Chain of MAP/microtubule affinity-regulating kinase 3 (Homo sapiens) (P27448 whole entry, looked up): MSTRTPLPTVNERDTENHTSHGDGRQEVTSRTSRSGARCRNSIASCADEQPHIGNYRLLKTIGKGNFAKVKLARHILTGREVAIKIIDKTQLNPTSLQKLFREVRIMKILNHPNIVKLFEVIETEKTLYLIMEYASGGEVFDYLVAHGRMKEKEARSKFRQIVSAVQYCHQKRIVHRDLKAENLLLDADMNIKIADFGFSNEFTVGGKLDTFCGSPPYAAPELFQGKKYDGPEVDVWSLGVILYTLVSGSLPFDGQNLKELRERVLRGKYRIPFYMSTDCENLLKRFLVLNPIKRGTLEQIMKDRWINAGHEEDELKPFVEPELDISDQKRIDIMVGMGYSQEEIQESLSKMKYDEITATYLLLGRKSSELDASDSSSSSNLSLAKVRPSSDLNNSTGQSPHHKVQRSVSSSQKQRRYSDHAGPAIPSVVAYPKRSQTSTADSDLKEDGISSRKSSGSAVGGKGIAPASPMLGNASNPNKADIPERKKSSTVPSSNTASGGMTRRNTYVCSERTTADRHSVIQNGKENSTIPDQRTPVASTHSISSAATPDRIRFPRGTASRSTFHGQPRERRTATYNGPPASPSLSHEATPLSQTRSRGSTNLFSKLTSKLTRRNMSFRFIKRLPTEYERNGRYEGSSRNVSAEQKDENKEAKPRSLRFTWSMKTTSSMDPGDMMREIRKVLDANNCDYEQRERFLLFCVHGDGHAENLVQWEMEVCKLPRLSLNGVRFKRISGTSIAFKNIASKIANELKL
# [10] = molecular target: Serine/threonine-protein kinase Nek6 (Homo sapiens) (UniProt Q9HC98); assay: Inhibition of human NEK6 assessed as residual activity at 10 uM relative to control
# Chain of Serine/threonine-protein kinase Nek6 (Homo sapiens) (Q9HC98 whole entry): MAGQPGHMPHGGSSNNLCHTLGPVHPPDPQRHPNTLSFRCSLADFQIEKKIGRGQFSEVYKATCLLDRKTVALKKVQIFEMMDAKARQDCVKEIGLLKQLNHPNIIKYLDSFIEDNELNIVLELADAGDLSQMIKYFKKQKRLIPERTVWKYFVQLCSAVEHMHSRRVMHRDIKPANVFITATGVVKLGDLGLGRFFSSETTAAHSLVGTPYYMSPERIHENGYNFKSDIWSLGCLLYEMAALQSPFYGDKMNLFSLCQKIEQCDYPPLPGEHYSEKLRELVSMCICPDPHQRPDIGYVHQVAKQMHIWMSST
# [11] = molecular target: Myosin light chain kinase, smooth muscle (Homo sapiens) (UniProt Q15746); assay: Inhibition of human smMLCK assessed as residual activity at 10 uM relative to control
# [12] = molecular target: T3, Protein kinase C zeta type (Homo sapiens) (UniProt Q05513); assay: Inhibition of human PKCzeta assessed as residual activity at 1 uM relative to control
# T3 sequence (whole entry): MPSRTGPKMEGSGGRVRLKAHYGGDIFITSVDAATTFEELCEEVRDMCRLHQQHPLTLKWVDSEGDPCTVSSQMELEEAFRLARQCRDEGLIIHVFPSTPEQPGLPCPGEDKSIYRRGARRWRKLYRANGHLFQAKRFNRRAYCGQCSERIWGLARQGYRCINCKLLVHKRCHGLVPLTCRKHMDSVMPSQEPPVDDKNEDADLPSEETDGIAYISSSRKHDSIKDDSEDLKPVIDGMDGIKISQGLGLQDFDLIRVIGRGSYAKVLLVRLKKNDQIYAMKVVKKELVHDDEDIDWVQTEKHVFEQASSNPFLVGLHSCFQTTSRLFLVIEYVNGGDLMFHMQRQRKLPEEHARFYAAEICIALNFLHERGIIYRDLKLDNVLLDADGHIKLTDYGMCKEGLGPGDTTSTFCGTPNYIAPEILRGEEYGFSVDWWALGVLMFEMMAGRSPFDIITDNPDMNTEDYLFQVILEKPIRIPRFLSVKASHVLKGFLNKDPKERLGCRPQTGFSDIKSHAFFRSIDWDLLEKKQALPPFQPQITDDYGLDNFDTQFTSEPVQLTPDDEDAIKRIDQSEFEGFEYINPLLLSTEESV
# [13] = molecular target: T3, Protein kinase C zeta type (Homo sapiens); assay: Inhibition of human PKCzeta assessed as residual activity at 10 uM relative to control
Activity [1],Activity [2],Activity [3],Activity [4],Activity [5],Activity [6],Activity [7],Activity [8],Activity [9],Activity [10],Activity [11],Activity [12],Activity [13],Compound
85.1%,103%,81.4%,80.4%,23.4%,82.4%,71%,101%,94.6%,78.8%,79.3%,93.7%,82%,CC(=O)Nc1nccc(-c2c(-c3ccccc3)noc2C)n1
113%,87%,58%,90%,88%,89%,83%,101%,84%,90%,62%,84%,77%,CCCC(=O)Nc1n[nH]c2ncc(-c3cccnc3)cc12
93.8%,78.3%,48.8%,72%,70.9%,52%,68.4%,106%,62.6%,94.3%,45.6%,120%,84.2%,CC(=O)Nc1cccc(-c2cnc3[nH]nc(C)c3c2)c1
